Reference: patent US20250163057A1, “DCN-1 MODULATING COMPOUNDS AND METHODS OF USE THEREOF” (Cellarity, Inc., priority 2023, published 2025)
Like-named read-outs stand apart in the source and are kept apart here.

Key:
[1] = test system: Cullin-3 (CUL3) neddylation; test: AlphaLISA assay for Cullin-3 (CUL3) neddylation in TF 1 cells; format: cell-based; details: 3 hours treatment
Procedure: An AiphaLISA assay was performed to evaluate the ability of the compounds to suppress neddylation, which is downstream from DCN-1 and DCN-2. A stronger inhibition of DCN-1 and DCN-2 is expected to result in a suppression of neddylation as shown by a lower AlphaLISA signal. The AlphaLISA assay for detecting Cullin-3 (CUL3) neddylation was performed according to manufacturer instructions (Revvity, Hopkinton, MA). Briefly, TF 1 cells (ATCC) were plated in Iscove's Modified Dulbecco's Medium (IMIDM) without supplements in 384-well plates. These cells were treated with […] for 3 hours before lysing them with AlphaLISA lysis buffer, 5× (Revvity). To detect the level of CUL3 neddylation, biotinylated anti-NEDD8 antibody, was added followed by AlphaLISA Acceptor beads conjugated with anti-CUL3 antibody. After overnight incubation, Streptavidin-coated Alpha Donor beads were added and incubated for 1 hour. The AlphaLISA signal was then read on a VICTOR Nivo Multimode Microplate Reader (Revvity, Hopkinton, MA). The positive control was 1 μM DI-1548, which is reported to reduce CUL3 neddylation, also referred to as C-1 in Example 41 (Zhou et al. Nature Comm. 2021). The neddylation signal was normalized such that the percent inhibition is 0% for vehicle control and 100% for positive control. The dose-response curves were fitted with the Hill equation to obtain IC50 values (Graphpad Prism).

[2] = target: DCN1 (DCUND1) protein PONY domain (Homo sapiens (Human), UniProt Q96GG9); test: TR-FRET assay, DCN1 binding with FAM-labeled probe
Summary of the method: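 First, the E. coli-derived PONY domain was biotinylated and paired with streptavidin Tb cryptate. Compounds in 0.1% DMSO were then added to DCN1 and FAM-probe (5 nM/20 nM, or 0.31 nM/900 nM total with 800 nM unlabelled) in TritonX, 200 mM NaCl buffer. Finally, TR-FRET ratios were recorded at 1, 5 and 24 hrs.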

[3] = 24 hr after treatment with compound, read-out: TR FRET IC50 24 hr
[4] = TR FRET IC50 1 hr (nM), 1 hr after treatment with compound
[5] = read-out: TR FRET IC50 1 hr, 1 hr after treatment with compound

Chain of DCN1 (DCUND1) protein PONY domain (Q96GG9 60-248): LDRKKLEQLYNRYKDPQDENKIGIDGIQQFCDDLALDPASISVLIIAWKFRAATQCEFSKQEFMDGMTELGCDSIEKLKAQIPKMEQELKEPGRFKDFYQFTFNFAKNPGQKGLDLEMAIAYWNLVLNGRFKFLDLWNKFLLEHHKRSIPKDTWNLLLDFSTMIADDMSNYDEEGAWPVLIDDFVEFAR

Row | SMILES | IC50 ([1]; Homo sapiens, TF-1, 3 h) [nM] | IC50 [2, 3] [nM] | IC50 [2, 4] [nM] | IC50 [2, 5] [nM] | IC50 [1] [nM] | IC50 ([1]; Homo sapiens) [nM]
1 | CCN1C(=O)[C@@H](NC(=O)CN2CC(c3ccccc3)CC2=O)[C@@H](C2CC2)c2c(C(=O)N3[C@H](C#N)C[C@H]4C[C@H]43)nn(C3CCOCC3)c21 (stereo partly drawn) [Compound I-629] | > 1000 | 1000 to 3000 | 1000 to 3000 |  |  | 
2 | CCN1C(=O)[C@H](NC(=O)c2cccc(C(F)(F)F)c2)[C@H](c2ccc(F)cc2)c2c(C(=O)N3CCC[C@H]3C#N)nn(-c3cccc(OCCCN4CCC5(CC4)COC5)c3)c21 [Compound I-581] | > 1000 | 200 to 1000 | 1000 to 3000 |  |  | 
3 | CCCn1nc(C(=O)N2CCC[C@H]2C#N)c2c1N(CC)C(=O)[C@H](NC(=O)c1cccc(C(F)(F)F)c1)[C@@H]2C1CC1 [Compound I-571] | > 1000 | 1000 to 3000 | 1000 to 3000 |  |  | 
4 | C=C(CN1CC2CCC(C1)O2)C(=O)NCc1nn(-c2ccccc2)c2c1[C@H](c1ccc(F)cc1)[C@H](NC(=O)c1cccc(C(F)(F)F)c1)C(=O)N2CC [Compound I-50] | ≤ 100 | ≤ 200 |  | ≤ 200 |  | 
5 | CCN1C(=O)[C@H](NC(=O)c2cccc(C(F)(F)F)c2)[C@H](c2ccc(F)cc2)c2c(C(=O)N3CC[C@@H]3C#N)nn(-c3ccccc3)c21 [Compound I-457] | > 1000 | 1000 to 3000 | 1000 to 3000 |  |  | 
6 | CCN1C(=O)[C@@H](NC(=O)c2ccc3nonc3c2)[C@@H](C2CC2)c2c(C(=O)N3[C@H](C#N)C[C@H]4C[C@H]43)nn(C3CCOCC3)c21 [Compound I-668] | 100 to 1000 | 1000 to 3000 | 1000 to 3000 |  |  | 
7 | CCN1C(=O)[C@@H](NC(=O)c2cccc(C(F)(F)F)c2)[C@@H](C2CC2)c2c(C(=O)N3CC[C@H](NC)[C@H]3C#N)nn(C3CCOCC3)c21 (relative stereo) [Compound I-687, N-((4S,5S)-3-((2S*,3S*)-2-cyano-3-(methylamino)pyrrolidine-1-carbonyl)-4-cyclopropyl-7-ethyl-6-oxo-1-(tetrahydro-2H-pyran-4-yl)-4,5,6,7-tetrahydro-1H-pyrazolo[3,4-b]pyridin-5-yl)-3-(trifluoromethyl)benzamide] | ≤ 100 | ≤ 200 | ≤ 200 |  |  | 
8 | CCN1C(=O)[C@@H](NC(=O)c2cccc(C(F)(F)F)c2)[C@@H](C2CC2)c2c(C(=O)N3CCOC[C@@H]3C#N)nn(-c3ccccc3)c21 [Compound I-658] | > 1000 | 200 to 1000 | 1000 to 3000 |  |  | 
9 | C=C(CN1CCC1)C(=O)NCc1nn(-c2ccccc2)c2c1[C@@H](C1CC1)[C@@H](NC(=O)c1cccc(C(F)(F)F)c1)C(=O)N2CC (stereo in doubt) [Compound I-636] | > 1000 | 1000 to 3000 | 1000 to 3000 |  |  | 
10 | CCN1C(=O)[C@@H](NC(=O)c2cccc(C(F)(F)F)c2)[C@@H](c2ccc(F)cn2)c2c([C@@H](C)NC#N)nn(-c3ccccc3)c21 [Compound I-439] | ≤ 100 | ≤ 200 |  | ≤ 200 |  | 
11 | CCN1C(=O)[C@@H](NC(=O)c2cccc(C(F)(F)F)c2)[C@@H](c2ccc(F)cc2)c2c(C(=O)N(C)[C@@H](C#N)CCN(C)C3COC3)nn(C3CCOCC3)c21 [Compound I-654] | ≤ 100 | ≤ 200 |  | ≤ 200 |  | 
12 | CCN1C(=O)[C@H](NC(=O)c2cccc(C(F)(F)F)c2)[C@H](C2CC2)c2c(C(=O)N(C)C(C)C#N)nn(C3CCOCC3)c21 (mixture of isomers) [Compound I-415] | > 1000 | 1000 to 3000 | 1000 to 3000 |  |  | 
13 | CCN1C(=O)[C@@H](NC(=O)c2cccc(C(F)(F)F)c2)[C@@H](C2CC2)c2c(C(=O)N3[C@@H]4C[C@@H]4C[C@@H]3C#N)nn(C3CCOCC3)c21 [Compound I-442] | > 1000 | 200 to 1000 | 1000 to 3000 |  |  | 
14 | CCN1C(=O)[C@@H](NC(=O)COc2ccccc2)[C@@H](C2CC2)c2c(C(=O)N3[C@H](C#N)C[C@H]4C[C@H]43)nn(C3CCOCC3)c21 [Compound I-628] | 100 to 1000 | 1000 to 3000 | 1000 to 3000 |  |  | 
15 | CCN1C(=O)[C@H](NC(=O)c2cccc(C(F)(F)F)c2)[C@H](c2ccc(F)cc2)c2c(C(=O)N3[C@H](C#N)C[C@H]4C[C@H]43)nn([C@@H]3CCOC3)c21 (single isomer, unassigned) [Compound I-562] |  | 1000 to 3000 | 1000 to 3000 |  | > 1000 | 
16 | CCN1C(=O)[C@H](NC(=O)c2cccc(C(F)(F)F)c2)[C@H](c2ccc(F)cc2)c2c(C(=O)N3CCOC[C@H]3C#N)nn(-c3ccccc3)c21 [Compound I-540] | > 1000 | 1000 to 3000 | 1000 to 3000 |  |  | 
17 | CCN1C(=O)[C@@H](NC(=O)c2cccc(C(F)(F)F)c2)[C@@H](c2ccc(F)cc2)c2c([C@@H](CCC(O)CO)NC#N)nn(-c3ccccc3)c21 (stereo partly drawn) [Compound I-497] | ≤ 100 | ≤ 200 |  | ≤ 200 |  | 
18 | CCN1C(=O)[C@@H](NC(=O)c2ccc3cn[nH]c3c2)[C@@H](C2CC2)c2c(C(=O)N3[C@H](C#N)C[C@H]4C[C@H]43)nn(C3CCOCC3)c21 [Compound I-563] | > 1000 | 1000 to 3000 | 1000 to 3000 |  |  | 
19 | CCN1C(=O)[C@@H](NC(=O)c2csc3c2CCC(C)C3)[C@@H](C2CC2)c2c(C(=O)N3[C@H](C#N)C[C@H]4C[C@H]43)nn(C3CCOCC3)c21 (stereo partly drawn) [Compound I-656] |  | ≤ 200 |  | ≤ 200 |  | ≤ 100
20 | CCN1C(=O)[C@@H](NC(=O)c2cccc(C(F)(F)F)c2)[C@@H](c2ccc(F)cc2)c2c(CCN(C#N)CCO)nn(-c3ccccc3)c21 [Compound I-538] | 100 to 1000 | ≤ 200 | 200 to 1000 |  |  | 
21 | CCN1C(=O)[C@H](NC(=O)c2cccc(C(F)(F)F)c2)[C@H](c2ccc(F)cc2)c2c(C(=O)N3CC[C@H]3C#N)nn(-c3ccccc3)c21 [Compound I-535] | > 1000 | 1000 to 3000 | 1000 to 3000 |  |  | 
22 | CCN1C(=O)[C@@H](NC(=O)c2cccc(C(F)(F)F)c2)[C@@H](C2CC2)c2c(C(=O)N(C)[C@H](C#N)CCN(C)C)nn(C3CCOCC3)c21 [Compound I-589] | ≤ 100 | ≤ 200 |  | ≤ 200 |  | 
23 | CCN1C(=O)[C@@H](NC(=O)c2nccc(C(F)(F)F)n2)[C@H](c2ccc(F)cc2)c2c(CC(=O)N[C@@H](C)C#N)nn(-c3ccccc3)c21 (single isomer, unassigned) [Compound I-451] | > 1000 | 1000 to 3000 | 1000 to 3000 |  |  | 
24 | CCN1C(=O)[C@@H](NC(=O)c2cccc(C(F)(F)F)c2)[C@@H](c2ccc(F)cc2)c2c(C(=O)N3[C@H](C#N)C[C@H]4C[C@H]43)nn([C@@H]3CCOC3)c21 (single isomer, unassigned) [Compound I-583] |  | 1000 to 3000 | 1000 to 3000 |  | > 1000 | 
25 | CCN1C(=O)[C@@H](NC(=O)c2cccc(C(F)(F)F)c2)[C@@H](C2CCCC2)c2c(C(=O)N(CC#N)C3CC3)nn(C3CCOCC3)c21 [Compound I-478] | 100 to 1000 | ≤ 200 | 1000 to 3000 |  |  | 
26 | CCN1C(=O)[C@@H](NC(=O)c2cccc(C(F)(F)F)c2)[C@@H](c2ccc(F)cc2)c2c(CN(C#N)CCO)nn(-c3ccccc3)c21 (racemic) [Compound I-244, ˜{N}—[˜{rac}-(4˜{S},5˜{S})-3-[[cyano(2-hydroxyethyl)amino]methyl]-7-ethyl-4-(4-fluorophenyl)-6-oxo-1-phenyl-4,5-dihydropyrazolo[3,4-b]pyridine-5-yl]-3-(trifluoromethyl)benzamide] | 100 to 1000 | 200 to 1000 | 1000 to 3000 |  |  | 
